The text below walks through data of article PMC10744269, “Frentizole, a Nontoxic Immunosuppressive Drug, and Its Analogs Display Antitumor Activity via Tubulin Inhibition” (International Journal of Molecular Sciences, 2023).

Some results are limits rather than exact numbers.

Data set [1] deals with HeLa (cervix epithelioid carcinoma cells). The data set is described as follows: MTT antiproliferative assay, HeLa. It is filed as cell-based, human. Conditions: for IC50: Homo sapiens, HeLa. The method, then: (§1) The cell proliferation inhibitory activity of frentizole and the synthesized analogs 2–10 against representative human cancer cell lines was assayed using the MTT method (Table 1). […] For those compounds inhibiting cell proliferation by more than 40% with respect to the untreated controls at the threshold concentration, the IC50 values were calculated by measuring the proliferation inhibition in a range of concentrations from 100 to 0.001 μM and adjusting the resulting curves to sigmoidal dose–response curves. The selected cell lines were HeLa (cervix epithelioid carcinoma cells), one of the most frequent kinds of cancer, with good sensitivity against antimitotic agents, and the glioblastoma cell lines U87MG and A172. To study the selectivity of the compounds toward cancer cells versus nontumor cells, the compounds were also evaluated against the nontumorigenic cell line HEK-293 (human embryonic kidney cells) and the murine macrophage cell line J774. Sulfonamide ABT-751, as a representative of the colchicine-site ligands, and the first-line drug for the treatment of glioblastoma multiforme temozolomide (TMZ) were used as reference compounds.
(§2) The cell lines were from ATTC (Manassas, VA, USA). HeLa (human cervix epithelioid carcinoma), U87 MG (human glioblastoma), A172 (human glioblastoma), and HEK-293 (human embryonic kidney) were grown in Dulbecco’s modified Eagle’s medium (DMEM, Gibco, Waltham, MA, USA), supplemented with 10% (v/v) heat-inactivated fetal bovine serum (HIFBS, Sigma-Aldrich, St. Louis, MO, USA), 2 mM L-glutamine, 100 μg/mL streptomycin, and 100 units/mL penicillin (Gibco, Waltham, MA, USA) at 37 °C in humidified 95% air and 5% CO2. The cells were periodically tested for Mycoplasma infection using MycoAlert kit (Lonza, Norwest, Australia), and only mycoplasma-free cells were employed in the experiments.
(§3) The effect of the compounds on the proliferation of human tumor cell lines was determined as previously described using the MTT reagent 3-[4,5-dimethylthiazol-2-yl]-2,5-diphenyltetrazolium bromide, MTT Thiazolyl Blue Tetrazolium Bromide, Sigma-Aldrich, St. Louis, MO, USA) dissolved in PBS at 5 mg/mL, according to the manufacturer’s instructions. The cells were incubated in 96-well plates (100 μL/well), in complete DMEM or RPMI 1640 medium (see above), at 37 °C and 5% CO2 atmosphere for 24 h to allow for cell attachment to the plate at the following concentrations: 30,000 cells/mL (U87MG, A172, J774, and HEK-293 cells) or 15,000 cells/mL (HeLa cells). Then, every compound was added (10 μL/well) to a final concentration of 10 μM. Untreated cells were used as negative controls. The antiproliferative activity of the compounds was measured 72 h after drug exposure using the MTT assay. The IC50 value (the drug concentration required to inhibit 50% of the cell growth in respect the untreated control) was determined for those compounds showing antiproliferative effects in the initial screening at 10 μM. For this purpose, the compounds were used at different concentrations ranging from 10^−10 to […]. Measurements were performed in triplicate and each experiment was repeated three times. The IC50 values were determined using Origin software (OriginLab, Washington, DC, USA).

The test system of data set [2] is A172 (human glioblastoma). The data set is described as follows: MTT antiproliferative assay, A-172. It is filed as cell-based. Conditions: 72 h after drug treatment, threshold 10 μM. How it is done:
as §1, §2, §3

For data set [3], the system named is U87 MG (human glioblastoma). The data set is described as follows: MTT antiproliferative assay, U-87 MG. Conditions: 72 h after drug treatment, threshold 10 μM. It is filed as cell-based. The method, then: as §1, §2, §3
Data set [4] deals with nontumorigenic cell line HEK-293 (human embryonic kidney cells). The data set is described as follows: MTT antiproliferative assay, HEK-293. It is filed as cell-based. Conditions: HEK293, 72 h after drug treatment, threshold 10 μM. How it is done:
as §1, §2, §3

Data set [5] relates to murine macrophage cell line J774. The data set is described as follows: MTT antiproliferative assay, J774. It is filed as cell-based. Conditions: Mus musculus, 72 h after drug treatment, threshold 10 μM, read-out: IC50 J-774. The method, then: as §1, §3
The subject of data set [6] is HeLa cells. The data set is described as follows: Cell cycle analysis (PI staining, flow cytometry). The settings on record: 2 μM, 24-72 h. It is filed as cell-based, human. How it is done:
To study the effects of the compounds on the cell cycle, cells were incubated for different times with the compounds and, thereafter, their DNA was stained using propidium iodide (PI) to allow for quantification by flow cytometry. […] The brominated ethyl BZTs (5b and 5f) were faster to show the subG0/G1 decrease, at 24 h, followed by an apparent stabilization of the G0/G1 population at 48 h, which abruptly fell at the 72 h time point.
HeLa cells (8 × 10^4 cells/mL) were seeded in 6-well plates (2 mL/well) and incubated in complete DMEM medium at 37 °C and 5% CO2 atmosphere for 24 h. Then, the medium was replaced with fresh complete DMEM in the presence or absence of the selected compounds (3ea, 5b, 5f, and frentizole 6e) at 2 μM. Untreated cells were used as negative controls. Cells were harvested 24, 48, or 72 h following treatment and fixed in ice-cold ethanol/PBS (7:3) overnight. The cells were then washed twice with PBS, suspended in PBS and incubated overnight in darkness with 0.2 mg/mL RNase A (Sigma-Aldrich, St. Louis, MO, USA), 50 μg/mL propidium iodide (Sigma-Aldrich, St. Louis, MO, USA), and Triton 10× at room temperature. A BD Accuri™ C6 Plus Flow Cytometer (BD Bioscience, Madrid, Spain) was used to analyze samples, and BD Accuri™ C6 Software (version 1.0.264.21) was used for data analysis.

Data set [7] deals with microtubule network of HeLa cells. The data set is described as follows: Immunofluorescence confocal microscopy of cellular microtubules. It is filed as cell-based, human. Conditions: 2 μM, 24 h. The method, then:
Therefore, we studied the effect of the compounds after 24 h of treatment on the microtubule network of HeLa cells by immunofluorescence confocal microscopy (Figure 5) through α-tubulin and nuclei labeling. […] These morphological effects are typical of tubulin inhibitors. Again, the effects are more pronounced for 5b than for 3ea, frentizole, and 5f.
HeLa cells (8 × 10^4 cells/mL) were seeded on 0.01% poly-L-lysine precoated square glass coverslips (22 mm^2), deposited on 6-well plates (1 coverslip/well), and incubated in complete DMEM medium at 37 °C and 5% CO2 atmosphere. After 24 h the culture medium was replaced by fresh complete DMEM, and the cells were incubated in the presence of 2 μM or absence of the selected compounds (3ea, 5b, 5f, and frentizole 6e) for 24 h. Untreated cells were used as negative controls. Then the medium was removed, and the coverslips were washed three times with PBS, fixed in 4% formaldehyde in PBS for 10 min, permeabilized with 0.5% Triton X-100 (Sigma-Aldrich, St. Louis, MO, USA) in PBS for 90 s at 4 °C, blocked with 10% BSA in PBS for 30 min and washed four times with PBS. Then, the coverslips were incubated for 1 h with anti-α-tubulin mouse monoclonal antibody (Sigma-Aldrich, St. Louis, MO, USA, 1:200 in PBS containing 3% BSA). After four washes with PBS, the coverslips were incubated with fluorescent secondary antibody Alexa Fluor 488 goat anti-mouse IgG (Molecular Probes, Invitrogen, Eugenen, OR, USA, 1:400 in PBS containing 1% BSA) for 1.5 h in darkness. After four washes with PBS, a droplet of ProLong™ Gold Antifade Mountant containing DAPI (ThermoFisher, Waltham, MA, USA) was added for cell nuclei staining. The samples were analyzed via confocal microscopy using a LEICA SP5 microscope DMI-6000V model coupled to a LEICA LAS AF 4.0 software computer.

Data set [8] in a line: Solubility (remark). The class given is physicochemical.
On the set-up of data set [9]: method as in PMID 24858403. The settings on record: cited from earlier work.
The test system of data set [10] is Ras-related protein Rab-9A. Details: method as in SuperPred [40]. The settings on record: Table S2, CHEMBL1293294; ref SuperPred [40]; cited from earlier work.
For data set [11], the system named is Survival motor neuron protein. Also noted: method as in SuperPred [40]. The settings on record: Table S2, CHEMBL1293232; ref SuperPred [40]; cited from earlier work.
The subject of data set [12] is U87 MG (human glioblastoma). Also noted: method as in PMID 37376146. Conditions: cited from earlier work.
Setting [13] is: 72 h after drug treatment, threshold 10 μM.

`COc1ccc2nc(N(C)C(=O)c3ccccc3)sc2c1` [Compound 3ea, N-(6-methoxybenzo[d]thiazol-2-yl)-N-methylbenzamide]: the “activity against HeLa cells (in words)” value in data set [1] is given as “significant activity”. The IC50 in data set [1] (setting [13]) was 0.74 µM; in data set [2] it was > 10 µM; in data set [3] it was > 10 µM; in data set [4], > 10 µM; in [5], > 10 µM. In addition, in data set [6], the “effect on the cell cycle populations (in words)” value is “weakest effect on the cell populations”. Moreover, the “effect on the microtubule network (in words)” value in data set [7] is listed as “severe microtubule network disruption”.

For `CCNC(=O)Nc1nc2c(Br)cc(C)cc2s1` [Compound 5b, 1-(4-Bromo-6-methylbenzo[d]thiazol-2-yl)-3-ethylurea], the “activity against HeLa cells (in words)” value in data set [1] was “significant activity”. Besides, the IC50 in [1] (setting [13]) is 0.49 µM; in data set [2], > 10 µM; in data set [3], > 10 µM; in data set [4] it was > 10 µM; in [5] it was > 10 µM. Further, the “effect on the cell cycle populations (in words)” value in [6] is on record as “arrest at G2/M in the 24 to 48 h period”. Besides, the “effect on the microtubule network (in words)” value in [7] is “severe microtubule network disruption”.

With `CCNC(=O)Nc1nc2c(Br)c(C)c(C)cc2s1` [Compound 5d, 1-(4-Bromo-5,6-dimethylbenzo[d]thiazol-2-yl)-3-ethylurea], in [1], the “activity against HeLa cells (in words)” value is “significant activity”. Moreover, the IC50 in [1] (setting [13]) was 1.24 µM; in [2], > 10 µM; in data set [3], > 10 µM; in [4], > 10 µM; in [5], > 10 µM. Moreover, the “solubility (in words)” value in data set [8] is recorded as “very limited solubility”.

Regarding `CCNC(=O)Nc1nc2c(Br)cc(OC)cc2s1` [Compound 5f, 1-(4-Bromo-6-methoxybenzo[d]thiazol-2-yl)-3-ethylurea], the “activity against HeLa cells (in words)” value in data set [1] is “significant activity”. Also, the IC50 is 0.7 µM in [1] (setting [13]); > 10 µM in data set [2]; > 10 µM in data set [3]; > 10 µM in data set [4]; > 10 µM in [5]. Further, in data set [6], the “effect on the cell cycle populations (in words)” value is “increase in the subG0/G1 population progressively occurs at the 48 h to 72 h timepoints”. Moreover, the “effect on the microtubule network (in words)” value in data set [7] is listed as “severe microtubule network disruption”.

With `COc1ccc2nc(NC(=O)Nc3ccccc3)sc2c1` [Compound 6e, 1-(6-Methoxybenzo[d]thiazol-2-yl)-3-phenylurea, reference compound], in data set [1], the “activity against HeLa cells (in words)” value is on record as “significant activity”. The “IC50 HeLa” value in data set [1] (setting [13]) is given as “low micromolar range”. In addition, the IC50 in [1] (setting [13]) was 1 µM; in [2] it was > 10 µM; in [3], 7.33 µM; in data set [4], 6.86 µM; in data set [5], > 10 µM. Also, the figures for the “effect on the cell cycle populations (in words)” value in [6] (listed as Frentizole (6e)) and in data set [6] (listed as frentizole) were “progressive accumulation of cells in the G2/M population” and “no increase in the subG0/G1 population was observed”, respectively. Also, in data set [7], the “effect on the microtubule network (in words)” value was “severe microtubule network disruption”. In data set [9], the “blood–brain barrier crossing” value is on record as “able to cross the blood–brain barrier”. Moreover, the “Min Activity (Assay type Potency)” value in data set [10] is given as 707.9 nm; in data set [11], 891.3 nm.

On to `Cn1nnc2c(C(N)=O)ncn2c1=O` [temozolomide], for which the “in vitro IC50 against U87MG” value in [12] was “millimolar range”.
